# Measured values taken from patent US8058306B2, “Phenyl pyrrole aminoguanidine derivatives” (Action Pharma A/S, priority 2006, dated 2011).
# “And” between values parts separate entries of the source, which are not always exact repeats. Equal values may be shown once. “Also recorded” adds a separate entry of the source. Read-outs that look alike come from different tables or passages of the source.
# Assay: Plasma kinetics in rat following intravenous and oral administration
# Assay type: in vivo, Sprague Dawley rats
# Conditions: male rats; for concentration at 24 h: iv; for MRT: read-out: MRT
# Procedure: This study determined the intravenous pharmacokinetics and oral bioavailability of compound 1 of the invention (see FIG. 1A, structure no. 1), compound 2 of the invention (see FIG. 1D, structure no. 19) and compound 3 of the invention (see FIG. 1I, structure no. 53) following administration to Sprague Dawley rats at a dose level of 10 mg/kg.
# Six groups of 3 male rats received either a single intravenous or single oral administration of compound 1, 2 or 3 of the invention at a dose level of 10 mg/kg. Blood samples were obtained at various times after dosing. Plasma samples were analysed for unchanged test item using a suitable LC-MS/MS method. Pharmacokinetic parameters were estimated from individual plasma concentrations.
# Eighteen male rats each received either a single intravenous or a single oral administration of either compound 1, 2 or 3 at a dose level of 10 mg/kg. The formulation was orally administered to each animal by gastric gavage and intravenously administered to each animal via a tail vein. The dose was administered at a dose volume of 5 mL/kg. The formulations were administered to each animal according to the details in the following table:
# Blood samples (ca 0.3 mL) were removed from the femoral vein of each animal into tubes containing lithium heparin as anticoagulant.
# Blood samples were collected from 3 rats at the following times after dose administration: • 3, 6, 15, 45 min and 1.5, 2.5, 4, 6, 8, 24 h post dose. Oral Administration
# Blood samples were collected from 3 rats at the following times after dose administration: • 5, 15, 45 min and 1.5, 2.5, 4, 6, 8, 24 h post dose. Processing of Blood Samples
# Pharmacokinetic parameters of compound 1, 2 and 3 were derived by non-compartmental analysis using WinNonLin Pro version 5.0.1 (Pharsight 2005). The following parameters were derived, where appropriate, from the individual plasma concentration versus time profiles:
# • F % The absolute oral bioavailability calculated as [AUC0-t (oral)*Dose(iv)/AUC0-t (iv)*Dose (oral)]*100 based on mean values derived after oral and intravenous administration Consideration was given to the estimation of λz and corresponding t1/2 values. Three or more points are required within the terminal phase for λz and t1/2 to be estimated. The following additional variables were tabulated to aid identification of potentially unreliable estimates of t1/2 and AUC:
# Pharmacokinetic parameters were reported as geometric mean except Tmax which was reported as the median. Geometric coefficient of variation was calculated as: […]
# Actual sampling times were used for all calculations of pharmacokinetic parameters. Plasma concentrations that were below the limit of quantification were taken as zero for the pharmacokinetic analysis.
# [1] = male, Sprague Dawley, rat, plasma, po, 10 mg/kg, oral 10 mg/kg, individual animals
# [2] = oral 10 mg/kg, individual animals, acetate, 10 mg/kg
smiles,measurement,setting,value
"N=C(N)NN=CC=Cc1cccn1-c1ccccc1[N+](=O)[O-] [Compound 2, [1-(2-nitrophenyl)-1H-pyrrol-2-yl-allylideneamino]guanidinium acetate]",concentration at 24 h,"male, Sprague Dawley, rat, plasma, 10 mg/kg, single intravenous 10 mg/kg, 24 h, individual animals, LLOQ 2.50, read-out: Sample Concentration in plasma",3.95 ng/mL
same,concentration at 24 h,"male, Sprague Dawley, rat, plasma, 10 mg/kg, single intravenous 10 mg/kg, 24 h, mean, read-out: Mean Concentration in plasma",3.95 ng/mL
same,AUC(0-t),"male, Sprague Dawley, rat, plasma, po, 10 mg/kg, oral 10 mg/kg, Arithmetic Mean, read-out: AUC0-t",67.4 ng·h/mL
same,Cmax,"male, Sprague Dawley, rat, plasma, po, 10 mg/kg, oral 10 mg/kg, Arithmetic Mean, read-out: Cmax",31.2 ng/mL
same,Tmax,"male, Sprague Dawley, rat, plasma, po, 10 mg/kg, oral 10 mg/kg, Arithmetic Mean, read-out: tmax",1.75 h
same,AUC(0-t),"male, Sprague Dawley, rat, plasma, po, 10 mg/kg, oral 10 mg/kg, Geometric mean, read-out: AUC0-t",66.1 ng·h/mL
same,Cmax,"male, Sprague Dawley, rat, plasma, po, 10 mg/kg, oral 10 mg/kg, Geometric mean, read-out: Cmax",26.3 ng/mL
same,MRT,"male, Sprague Dawley, rat, plasma, po, 10 mg/kg, oral 10 mg/kg, Geometric mean",3.06 h
same,half-life,"male, Sprague Dawley, rat, plasma, po, 10 mg/kg, oral 10 mg/kg, Geometric mean, read-out: t1/2 (converted)",2.25 h
same,Tmax,"male, Sprague Dawley, rat, plasma, po, 10 mg/kg, oral 10 mg/kg, Geometric mean, read-out: tmax",1.16 h
same,AUC(0-t),"male, Sprague Dawley, rat, plasma, po, 10 mg/kg, oral 10 mg/kg, Median, read-out: AUC0-t",62.6 ng·h/mL
same,Cmax,"male, Sprague Dawley, rat, plasma, po, 10 mg/kg, oral 10 mg/kg, Median, read-out: Cmax",18.8 ng/mL
same,Tmax,"male, Sprague Dawley, rat, plasma, po, 10 mg/kg, oral 10 mg/kg, Median, read-out: tmax",2.5 h
same,AUC(0-inf),[1],102 ng·h/mL
same,AUC(0-t),"male, Sprague Dawley, rat, plasma, po, 10 mg/kg, oral 10 mg/kg, individual animals, read-out: AUC0-t",85.6 ng·h/mL
same,MRT,[1],3.06 h
same,half-life,"male, Sprague Dawley, rat, plasma, po, 10 mg/kg, oral 10 mg/kg, individual animals, read-out: t1/2 (converted)",2.25 h
same,Tmax,"male, Sprague Dawley, rat, plasma, po, 10 mg/kg, oral 10 mg/kg, from mean plasma concentrations, read-out: time post dose at which maximum plasma concentration was observed (tmax)",2.5 h
same,half-life,"male, Sprague Dawley, rat, plasma, po, 10 mg/kg, oral 10 mg/kg, read-out: apparent terminal half-life (converted)",2.25 h
same,concentration at 0.05 h,"male, Sprague Dawley, rat, plasma, po, 10 mg/kg, single oral 10 mg/kg, 0.05 h, individual animals, LLOQ 2.50, read-out: Sample Concentration in plasma",4.68 ng/mL
same,concentration at 0.05 h,"male, Sprague Dawley, rat, plasma, po, 10 mg/kg, single oral 10 mg/kg, 0.05 h, mean, read-out: Mean Concentration in plasma",4.68 ng/mL
same,concentration at 0.25 h,"male, Sprague Dawley, rat, plasma, po, 10 mg/kg, single oral 10 mg/kg, 0.25 h, mean of 3, read-out: Mean Concentration in plasma",25.5 ng/mL
same,concentration at 0.75 h,"male, Sprague Dawley, rat, plasma, po, 10 mg/kg, single oral 10 mg/kg, 0.75 h, mean of 3, read-out: Mean Concentration in plasma",13.9 ng/mL
same,concentration at 1.5 h,"male, Sprague Dawley, rat, plasma, po, 10 mg/kg, single oral 10 mg/kg, 1.5 h, individual animals, read-out: Sample Concentration in plasma",9.56 ng/mL
same,concentration at 1.5 h,"male, Sprague Dawley, rat, plasma, po, 10 mg/kg, single oral 10 mg/kg, 1.5 h, mean of 3, read-out: Mean Concentration in plasma",12.3 ng/mL
same,concentration at 2.5 h,"male, Sprague Dawley, rat, plasma, po, 10 mg/kg, single oral 10 mg/kg, 2.5 h, individual animals, read-out: Sample Concentration in plasma",16.5 ng/mL
same,concentration at 2.5 h,"male, Sprague Dawley, rat, plasma, po, 10 mg/kg, single oral 10 mg/kg, 2.5 h, mean of 3, read-out: Mean Concentration in plasma",17.1 ng/mL
same,concentration at 4 h,"male, Sprague Dawley, rat, plasma, po, 10 mg/kg, single oral 10 mg/kg, 4 h, mean of 3, read-out: Mean Concentration in plasma",7.91 ng/mL
same,concentration at 6 h,"male, Sprague Dawley, rat, plasma, po, 10 mg/kg, single oral 10 mg/kg, 6 h, individual animals, read-out: Sample Concentration in plasma",2.76 ng/mL
same,concentration at 6 h,"male, Sprague Dawley, rat, plasma, po, 10 mg/kg, single oral 10 mg/kg, 6 h, mean of 3, read-out: Mean Concentration in plasma",3.81 ng/mL
same,MAT,"oral 10 mg/kg, individual animals",-0.465 h
same,AUC(0-t),[2],62.6 ng·h/mL and 54.0 ng·h/mL
same,Cmax,[2],58.4 ng/mL and 16.5 ng/mL
same,Tmax,[2],0.250 h
same,"maximum observed plasma concentration, mean value","oral 10 mg/kg, at tmax",17.1 ng/mL
same,Sample Concentration in plasma,"single intravenous 10 mg/kg, 0.05 h, individual animals, acetate, 10 mg/kg",2270 ng/mL and 3150 ng/mL
same,Sample Concentration in plasma,"single intravenous 10 mg/kg, 0.1 h, individual animals, acetate, 10 mg/kg",1020 ng/mL and 1410 ng/mL
same,Sample Concentration in plasma,"single intravenous 10 mg/kg, 0.25 h, individual animals, acetate, 10 mg/kg",612 ng/mL and 712 ng/mL
same,Sample Concentration in plasma,"single intravenous 10 mg/kg, 0.75 h, individual animals, acetate, 10 mg/kg",237 ng/mL and 334 ng/mL
same,Sample Concentration in plasma,"single intravenous 10 mg/kg, 1.5 h, individual animals, acetate, 10 mg/kg",232 ng/mL and 168 ng/mL
same,Sample Concentration in plasma,"single intravenous 10 mg/kg, 2.5 h, individual animals, acetate, 10 mg/kg",183 ng/mL and 194 ng/mL
same,Sample Concentration in plasma,"single intravenous 10 mg/kg, 4 h, individual animals, acetate, 10 mg/kg",158 ng/mL and 115 ng/mL
same,Sample Concentration in plasma,"single intravenous 10 mg/kg, 6 h, individual animals, acetate, 10 mg/kg",116 ng/mL and 58.1 ng/mL
same,Sample Concentration in plasma,"single intravenous 10 mg/kg, 8 h, individual animals, LLOQ 2.50, acetate, 10 mg/kg",42.7 ng/mL and 98.4 ng/mL and 54.1 ng/mL
same,Sample Concentration in plasma,"single intravenous 10 mg/kg, 24 h, individual animals, LLOQ 2.50, acetate, 10 mg/kg",<LLOQ
same,adverse effects,"single intravenous or oral administration, 10 mg/kg, acetate",No adverse effects; also recorded: No adverse affects
same,Sample Concentration in plasma,"single oral 10 mg/kg, 0.05 h, individual animals, LLOQ 2.50, acetate, 10 mg/kg",<LLOQ
same,Sample Concentration in plasma,"single oral 10 mg/kg, 0.25 h, individual animals, acetate, 10 mg/kg",9.11 ng/mL and 9.01 ng/mL and 58.4* ng/mL
same,Sample Concentration in plasma,"single oral 10 mg/kg, 0.75 h, individual animals, acetate, 10 mg/kg",9.02 ng/mL and 10.4 ng/mL and 22.4 ng/mL
same,Sample Concentration in plasma,"single oral 10 mg/kg, 1.5 h, individual animals, acetate, 10 mg/kg",9.84 ng/mL and 17.4 ng/mL
same,Sample Concentration in plasma,"single oral 10 mg/kg, 2.5 h, individual animals, acetate, 10 mg/kg",18.8 ng/mL and 16.1 ng/mL
same,Sample Concentration in plasma,"single oral 10 mg/kg, 4 h, individual animals, acetate, 10 mg/kg",12.6 ng/mL and 4.79 ng/mL and 6.35 ng/mL
same,Sample Concentration in plasma,"single oral 10 mg/kg, 6 h, individual animals, acetate, 10 mg/kg",3.74 ng/mL and 4.94 ng/mL
same,Sample Concentration in plasma,"single oral 10 mg/kg, 8 h, individual animals, LLOQ 2.50",<LLOQ
same,Mean Concentration in plasma,"single oral 10 mg/kg, 8 h, mean, LLOQ 2.50",<LLOQ
same,Sample Concentration in plasma,"single oral 10 mg/kg, 24 h, individual animals, LLOQ 2.50",<LLOQ
same,Mean Concentration in plasma,"single oral 10 mg/kg, 24 h, mean, LLOQ 2.50",<LLOQ
